Data from patent EP4268800A1 (Prescience Biotechnology Inc., priority 2022, dated 2023).
Like-named read-outs stand apart in the source and are kept apart here.

Columns and labels:
SKOV3 xenograft = assay: Xenograft ovarian tumor in mice; type: in vivo, NOD/SCID mice; settings: docetaxel 4 mg/kg, RAP-E 50 mg/kg
From the text: Akt and mTOR phosphorylation are frequently detected in ovarian cancer, and SKOV3, an ovarian cancer cell line, is resistant to cis-platinum and doxorubicin.

[1] = cited from earlier work
CT26 model = assay: Mouse colon cancer model; type: in vivo, Balb/c mice; settings: 5-FU 25 mg/kg, RAP-E 25 mg/kg
Protocol: CT26 model on Balb/c mice was used as another animal model, classified as three groups: a control group (no drug), a comparative group (administration of 5-FU, dose: 25 mg/kg, Q3d^∗4) and the inventive group (administration of RAP-E formulation, dose: 25 mg/kg, Q3d^∗4). 6 week old Balb/c mice (BioLasco, Ilan, Taiwan) were inoculated subcutaneously with 1^∗10^5 CT26 cells (murine colorectal carcinoma cell). Following tumor inoculation, measuring the tumor size twice a week, and starting treatment when the tumor grows to 80-100 mm^3.

[2] = LD50 of previous intravenous injection formulation, converted to mice; settings: mouse, in vivo, equivalent of the rat value in mice, read-out: lethal dosage 50% (LD50), equivalent in mice
[3] = previous intravenous injection formulation, in rats; cited from earlier work

CC(=O)O[C@@]12CO[C@@H]1C[C@H](O)[C@@]1(C)C(=O)[C@H](O)C3=C(C)[C@@H](OC(=O)[C@H](O)[C@@H](NC(=O)OC(C)(C)C)c4ccccc4)C[C@@](O)([C@@H](OC(=O)c4ccccc4)[C@H]21)C3(C)C [docetaxel]
Mean inhibition rate (SKOV3 xenograft; Q3d*4): 53%
Day 39 tumor inhibition rate (SKOV3 xenograft; Q3d*4, day 39): 57%

CO[C@H]1C[C@@H]2CC[C@@H](C)[C@@](O)(O2)C(=O)C(=O)N2CCCC[C@H]2C(=O)O[C@H]([C@H](C)C[C@@H]2CC[C@@H](OCCO)[C@H](OC)C2)CC(=O)[C@H](C)/C=C(\C)[C@@H](O)[C@@H](OC)C(=O)[C@H](C)C[C@H](C)/C=C/C=C/C=C/1C [everolimus]
bioavailability ([1]; in a tablet form): ~ 20%

CO[C@H]1C[C@@H]2CC[C@@H](C)[C@@](O)(O2)C(=O)C(=O)N2CCCC[C@H]2C(=O)O[C@H]([C@H](C)C[C@@H]2CC[C@@H](OC(=O)C(C)(CO)CO)[C@H](OC)C2)CC(=O)[C@H](C)/C=C(\C)[C@@H](O)[C@@H](OC)C(=O)[C@H](C)C[C@H](C)/C=C/C=C/C=C/1C [temsirolimus]
bioavailability ([1]; via intravenous infusion): up to 100%

O=c1[nH]cc(F)c(=O)[nH]1 [5-FU]
Mean inhibition rate (CT26 model; Q3d*4): 11%
body weight change / toxicity (CT26 model; Q3d*4): significant weight loss
Day 16 tumor inhibition rate (CT26 model; Q3d*4, day 16): 26%

CO[C@H]1C[C@@H]2CC[C@@H](C)[C@@](O)(O2)C(=O)C(=O)N2CCCC[C@H]2C(=O)O[C@H]([C@H](C)C[C@@H]2CC[C@@H](O)[C@H](OC)C2)CC(=O)[C@H](C)/C=C(\C)[C@@H](O)[C@@H](OC)C(=O)[C@H](C)C[C@H](C)/C=C/C=C/C=C/1C [Rapamycin]
LD50 [2]: 80 mg/kg
lethal dosage 50% (LD50) [3]: 40 mg/kg
